Experiments:
[1] = system: Tomato Early Blight organism, Alternaria solani; assay: Fungicidal efficacy, control of Tomato Early Blight on sprayed tomato seedlings; format: in vivo; settings: for Fungicidal Efficacy - % Control, TEB (Tomato Early Blight): 250 ppm spray, about 12 days; for fungicidal activity on Tomato Early Blight (in words): Table I test
[2] = system: Tomato Late Blight, Phytophthora infestans; format: in vivo; settings: 250 ppm spray; inoculated one day later; about 12 days
[3] = system: fungi; assay: Fungicidal activity overall (tests of Examples 1 and 2, Table I); format: in vivo
[4] = system: Powdery mildew pathogen, Erysiphe polygoni; assay: Fungicidal efficacy, control of Bean Powdery Mildew on sprayed bean seedlings; format: in vivo; settings: for Fungicidal Efficacy - % Control, BPM (Bean Powdery Mildew): 250 ppm spray, inoculated one day later, about 10 days; for fungicidal activity on Bean Powdery Mildew (in words): Table I test
Source text: The powdery mildew test was made using bean seedlings (variety Bountiful) with well-developed primary leaves. The pathogen was Erysiphe polygoni. […] The treated plants were inoculated one day after spray application of the test compound with the pathogen. […] The rate of infection on the leaves was made after about 10 days. The percent disease control provided by a given test compound was based on the disease reduction relative to untreated check plants. The results are reported in Table I. The test was repeated on Compound No. 1.

[5] = system: malaria; settings: disclosed by Burkhalter et al, 1948; cited from earlier work

SMILES	Fungicidal Efficacy - % Control, TEB (Tomato Early Blight) [1]	fungicidal activity (in words) [3]	Fungicidal Efficacy - % Control, BPM (Bean Powdery Mildew) [4]	antimalarial activity (in words) [5]	further results
CSc1cccc(N(Cc2cccc([N+](=O)[O-])c2)S(C)(=O)=O)c1 [Compound 6, N-(3-nitrobenzyl)-N-(3'-methylthiophenyl)-methane sulfonamide]	81%	activity comparable to that of Compound 1	–	–	Fungicidal Efficacy - % Control, TLB (Tomato Late Blight) [2]: 75%
CCCN(CCC)Cc1cccc(F)c1 [Compound 4, reference compound]	0%	no fungicidal activity	0%	–	–
CSc1cccc(NCc2cccc([N+](=O)[O-])c2)c1 [Compound 5, N-(3'-methylthiophenyl)-3-nitro-benzylamine]	–	activity comparable to that of Compound 1	79%	–	–
CCCN(CCC)Cc1ccc([N+](=O)[O-])cc1 [Compound 3, N,N-dipropyl-4-nitro-benzylamine, reference compound]	0%	no fungicidal activity	0%	antimalarial activity	–
CCN(CC)Cc1ccc([N+](=O)[O-])cc1 [N,N-diethyl-4-nitro-benzylamine]	–	–	–	antimalarial activity	–
CCCN(CCC)Cc1cccc([N+](=O)[O-])c1 [Compound 1, N,N-Dipropyl-3-Nitro-Benzylamine]	60%	unexpected fungicidal activity	86%	–	% control, Tomato Early Blight (repeat test) ([1]; 16 ppm): 90%; % control, Tomato Early Blight (repeat test) ([1]; 40 ppm): 90%; % control, Tomato Early Blight (repeat test) ([1]; 100 ppm): 93%; fungicidal activity on Tomato Early Blight (in words) [1]: unexpected fungicidal activity; % control, powdery mildew (repeat test) ([4]; 16 ppm): 0%; % control, powdery mildew (repeat test) ([4]; 40 ppm): 56%; % control, powdery mildew (repeat test) ([4]; 100 ppm): 83%; fungicidal activity on Bean Powdery Mildew (in words) [4]: unexpected fungicidal activity
CS(=O)(=O)c1cccc(NCc2cccc([N+](=O)[O-])c2)c1 [Compound 7]	–	activity comparable to that of Compound 1	–	–	Fungicidal Efficacy - % Control, TLB (Tomato Late Blight) [2]: 75%
CCN(CC)Cc1cccc([N+](=O)[O-])c1 [Compound 2, N,N-diethyl-3-nitro-benzylamine, reference compound]	0%	–	0%	antimalarial activity	fungicidal activity on Tomato Early Blight (in words) [1]: no fungicidal activity; fungicidal activity on Bean Powdery Mildew (in words) [4]: no fungicidal activity

From US4339461A, “N-Substituted 3-nitro-benzylamines” (Chevron Research Company, priority 1980, dated 1982)
